What was measured:
[1] = biological target: T1, Dihydrofolate reductase (Rattus norvegicus, UniProt Q920D2)
T1 sequence (Q920D2 whole entry): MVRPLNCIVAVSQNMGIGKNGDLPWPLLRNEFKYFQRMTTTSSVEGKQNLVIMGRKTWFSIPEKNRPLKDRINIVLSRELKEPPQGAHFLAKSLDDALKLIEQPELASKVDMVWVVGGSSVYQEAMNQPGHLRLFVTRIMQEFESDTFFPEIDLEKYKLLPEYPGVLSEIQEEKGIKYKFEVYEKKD
Description: Inhibitory activity against purified DHFR (Dihydrofolate reductase) from rat

[2] = biological target: T2, Bifunctional dihydrofolate reductase-thymidylate synthase (Toxoplasma gondii, UniProt Q07422); assay: Inhibitory activity against purified DHFR (Dihydrofolate reductase) from Toxoplasma gondii.
T2 sequence (Q07422 whole entry): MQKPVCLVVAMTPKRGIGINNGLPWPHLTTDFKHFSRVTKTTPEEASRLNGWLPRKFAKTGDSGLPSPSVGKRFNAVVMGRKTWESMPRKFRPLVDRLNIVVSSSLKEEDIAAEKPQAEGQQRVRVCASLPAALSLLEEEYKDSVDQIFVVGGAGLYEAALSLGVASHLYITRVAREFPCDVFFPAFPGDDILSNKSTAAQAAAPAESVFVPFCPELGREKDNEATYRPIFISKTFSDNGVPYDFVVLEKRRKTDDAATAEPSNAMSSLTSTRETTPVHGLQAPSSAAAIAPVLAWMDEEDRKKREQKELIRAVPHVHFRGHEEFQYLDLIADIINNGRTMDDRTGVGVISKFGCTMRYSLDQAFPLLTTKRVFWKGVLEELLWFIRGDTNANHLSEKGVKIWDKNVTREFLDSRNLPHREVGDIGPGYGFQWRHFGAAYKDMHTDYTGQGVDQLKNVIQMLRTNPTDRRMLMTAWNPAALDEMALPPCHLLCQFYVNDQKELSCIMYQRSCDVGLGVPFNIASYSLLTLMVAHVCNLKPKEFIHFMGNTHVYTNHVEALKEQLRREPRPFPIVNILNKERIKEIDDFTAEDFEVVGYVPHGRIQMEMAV

[3] = biological target: T3, Dihydrofolate reductase (Pneumocystis carinii, UniProt P16184)
T3 sequence (P16184 whole entry): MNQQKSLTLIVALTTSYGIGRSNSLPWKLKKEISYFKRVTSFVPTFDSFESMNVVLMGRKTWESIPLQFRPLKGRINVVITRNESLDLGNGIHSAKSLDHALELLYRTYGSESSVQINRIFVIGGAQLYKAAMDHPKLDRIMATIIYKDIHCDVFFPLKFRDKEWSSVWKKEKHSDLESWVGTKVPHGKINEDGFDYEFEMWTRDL
Description: Inhibitory activity against purified DHFR (Dihydrofolate reductase) from Pneumocystis carinii.

[4] = biological target: T2, Bifunctional dihydrofolate reductase-thymidylate synthase; assay: Inhibitory activity against purified DHFR (Dihydrofolate reductase) from Toxoplasma gondii
[5] = test system: NCI-H460; assay: In vitro activity of compound against non-small cell lung cancer NCI-H460; format: functional; details: Homo sapiens
[6] = biological target: T1, Dihydrofolate reductase; assay: Inhibitory activity against purified dihydrofolate reductase from rat
[7] = biological target: T3, Dihydrofolate reductase; assay: Inhibitory activity against purified dihydrofolate reductase from Pneumocystis carinii.
[8] = biological target: T2, Bifunctional dihydrofolate reductase-thymidylate synthase; assay: Inhibitory activity against purified Dihydrofolate reductase from Toxoplasma gondii.
[9] = test system: K562; assay: In vitro activity of compound against leukemia K-562 cell line; format: functional, Homo sapiens

Row | Compound | IC50 [1] [nM] | IC50 [2] [nM] | IC50 [3] [nM] | IC50 [6] [nM] | IC50 [7] [nM] | IC50 [8] [nM] | further results
1 | COc1cc(NCC2CCc3nc(N)nc(N)c3C2)cc(OC)c1OC (stereo not given) | 290 | 54 |  |  |  |  | 
2 | Nc1nc(N)c2c(n1)CCC(CN1CCc3ccccc31)C2 (stereo not given) | 160 | 27 | 210 |  |  |  | 
3 | Nc1nc(N)c2c(n1)CCC(CNc1c(Cl)cccc1Cl)C2 (stereo not given) | 109 | 9.9 | 502 |  |  |  | 
4 | Nc1nc(N)c2c(n1)CCC(CNc1cccc3ccccc13)C2 (stereo not given) | 139 |  | 517 |  |  |  | IC50 [4]: 36 nM; GI50 [5]: 50 nM
5 | Nc1nc(N)c2c(n1)CCC(CNc1ccc(Cl)cc1)C2 (stereo not given) | 128 | 78 | 940 |  |  |  | 
6 | CN(CC1CCc2nc(N)nc(N)c2C1)c1ccc(Cl)cc1 (stereo not given) |  |  |  | 67 | 171 | 22 | 
7 | CCOc1ccc(OCC)c(N(C)CC2CCc3nc(N)nc(N)c3C2)c1 (stereo not given) |  |  |  | 116 | 319 | 17 | 
8 | COc1cc(N(C)CC2CCc3nc(N)nc(N)c3C2)cc(OC)c1OC (stereo not given) |  |  |  | 38 | 95 | 7 | 
9 | CCOc1ccc(OCC)c(NCC2CCc3nc(N)nc(N)c3C2)c1 (stereo not given) | 1470 | 140 | 1570 |  |  |  | 
10 | CN(CC1CCc2nc(N)nc(N)c2C1)c1cccc2ccccc12 (stereo not given) |  |  |  | 47 | 100 | 23 | GI50 [9]: 40 nM
11 | COc1ccc(OC)c(N(C)CC2CCc3nc(N)nc(N)c3C2)c1 (stereo not given) |  |  |  | 260 | 300 | 15 | 
12 | Nc1nc(N)c2c(n1)CCC(CNc1cc(Cl)ccc1Cl)C2 (stereo not given) | 240 | 97 | 410 |  |  |  | 
13 | COc1cc(CN(C)CC2CCc3nc(N)nc(N)c3C2)cc(OC)c1OC (stereo not given) | 1630 | 330 | 3100 |  |  |  | 
14 | Nc1nc(N)c2c(n1)CCC(CNc1cccc(Br)c1)C2 (stereo not given) |  |  |  | 227 | 330 | 30 | 
15 | Nc1nc(N)c2c(n1)CCC(CNc1ccc(Cl)c(Cl)c1)C2 (stereo not given) |  |  |  | 150 | 6800 | 110 | 
16 | COc1cc(CNCC2CCc3nc(N)nc(N)c3C2)cc(OC)c1OC (stereo not given) |  |  |  | 12700 | 18500 |  | 
17 | COc1ccc(OC)c(NCC2CCc3nc(N)nc(N)c3C2)c1 (stereo not given) |  |  |  | 560 | 1670 | 181 | 
18 | CCN(CC1CCc2nc(N)nc(N)c2C1)c1cc(OC)ccc1OC (stereo not given) |  |  |  | 71 | 114 | 17 | 
19 | CN(CC1CCc2nc(N)nc(N)c2C1)c1ccc(Cl)c(Cl)c1 (stereo not given) |  |  |  | 34 | 246 | 21 | 
20 | C#CCN(CC1CCc2nc(N)nc(N)c2C1)c1cc(OC)c(OC)c(OC)c1 (stereo not given) |  |  |  | 74 | 119 | 12 | 
